From article PMC2778273 (Biochimica et biophysica acta, 2008)
≈ marks a conversion by molar mass, not a printed value.

Molecular target: Clitocybe nebularis lectin (CNL) (Clitocybe nebularis, UniProt B2ZRS9)
Assay: hemagglutination inhibition assay, human group A erythrocytes
Conditions: CNL 18.6 µg/ml; 20 mM Tris/HCl, 130 mM NaCl, pH 7.5; room temperature

Chain of Clitocybe nebularis lectin (CNL) (B2ZRS9 2-149): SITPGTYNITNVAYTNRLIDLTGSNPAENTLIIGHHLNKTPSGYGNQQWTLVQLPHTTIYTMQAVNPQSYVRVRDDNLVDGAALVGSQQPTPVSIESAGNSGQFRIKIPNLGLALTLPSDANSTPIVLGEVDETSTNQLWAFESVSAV

OC[C@H]1O[C@@H](O[C@H]2[C@H](O)[C@@H](O)C(O)O[C@@H]2CO)[C@H](O)[C@@H](O)[C@H]1O (stereo partly shown) [lactose]
minimum inhibitory concentration: 4.65 mM (≈ 1590 µg/mL)
